# Results taken from patent publication US12084451B2, “Compositions and methods for reducing tactile dysfunction, anxiety, and social impairment” (President and Fellows of Harvard College, priority 2018, dated 2024).
# Biological target: hGABAA α1β3γ2 (Homo sapiens, UniProt P14867+P18507+P28472)
# Test: hGABAA IonFlux HT PAM Assay, α1β3γ2
# Assay type: cell-based
# Description: Ligand-gated ion channels targeted were hGABAA α1β3γ2 and hGABAA α2β3γ2.
# Electrophysiological assays conducted to profile nine (9) compounds for activities on the on channel targets listed above for Positive Allosteric Modulator (PAM) activities using the IonFlux HT electrophysiological platform.
# The parameters measured are described in the Data Analysis section.
# All wells included a final DMSO concentration of 0.33% including all control wells.
# All recordings were obtained from a holding potential of −60 mV. The compound addition sequence that was used for all additions was the same for all assays. […] The process was repeated with the next ascending concentration of test compound (FIG. 1).
# All data were first exported to an Excel compatible data file and then analyzed using Graph Pad Prism software.
# hGABAA α1β3γ2, sequence (P14867 28-456): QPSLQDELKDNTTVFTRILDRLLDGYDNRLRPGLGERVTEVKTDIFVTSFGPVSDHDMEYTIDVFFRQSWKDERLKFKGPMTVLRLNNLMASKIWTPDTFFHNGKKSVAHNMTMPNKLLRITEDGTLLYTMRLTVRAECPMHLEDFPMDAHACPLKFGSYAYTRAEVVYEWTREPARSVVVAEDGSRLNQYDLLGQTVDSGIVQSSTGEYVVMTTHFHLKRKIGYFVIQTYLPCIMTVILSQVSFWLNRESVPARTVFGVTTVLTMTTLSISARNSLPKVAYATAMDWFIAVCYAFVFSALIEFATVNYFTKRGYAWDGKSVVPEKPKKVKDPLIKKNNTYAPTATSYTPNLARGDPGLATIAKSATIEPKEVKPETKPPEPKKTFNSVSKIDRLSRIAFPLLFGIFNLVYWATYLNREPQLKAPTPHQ
# hGABAA α1β3γ2, sequence (P28472 26-473): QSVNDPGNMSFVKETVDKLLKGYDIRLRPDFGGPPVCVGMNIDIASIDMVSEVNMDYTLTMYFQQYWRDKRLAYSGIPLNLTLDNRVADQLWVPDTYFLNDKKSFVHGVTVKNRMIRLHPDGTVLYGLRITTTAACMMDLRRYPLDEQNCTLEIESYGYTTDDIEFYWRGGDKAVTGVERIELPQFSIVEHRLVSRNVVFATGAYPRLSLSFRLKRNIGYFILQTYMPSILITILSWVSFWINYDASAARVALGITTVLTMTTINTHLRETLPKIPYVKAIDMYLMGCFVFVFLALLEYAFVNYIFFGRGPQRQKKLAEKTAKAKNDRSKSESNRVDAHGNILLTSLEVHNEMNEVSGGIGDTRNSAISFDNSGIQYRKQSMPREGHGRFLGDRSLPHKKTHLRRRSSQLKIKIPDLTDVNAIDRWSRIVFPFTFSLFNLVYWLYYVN
# hGABAA α1β3γ2, sequence (P18507 40-475): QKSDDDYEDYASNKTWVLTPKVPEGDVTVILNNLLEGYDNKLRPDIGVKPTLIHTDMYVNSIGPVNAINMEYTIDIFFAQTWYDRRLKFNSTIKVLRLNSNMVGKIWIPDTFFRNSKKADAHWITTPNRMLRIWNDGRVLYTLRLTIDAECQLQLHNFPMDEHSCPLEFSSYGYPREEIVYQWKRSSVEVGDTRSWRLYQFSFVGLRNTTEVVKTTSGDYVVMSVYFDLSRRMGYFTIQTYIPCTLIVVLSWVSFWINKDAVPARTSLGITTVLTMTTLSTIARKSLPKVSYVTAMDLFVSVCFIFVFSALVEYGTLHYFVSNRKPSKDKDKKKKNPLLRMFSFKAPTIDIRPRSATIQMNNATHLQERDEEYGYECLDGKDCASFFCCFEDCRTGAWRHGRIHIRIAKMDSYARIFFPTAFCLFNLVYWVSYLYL
compound,measurement,setting,value
O=C(O)C1=CCNCC1 [Isoguvacine],(%) Control mean,0.001 μM + EC20 GABA,103.6 % Control
same,(%) Control n1,0.001 μM + EC20 GABA,99.0 % Control
same,(%) Control n2,0.001 μM + EC20 GABA,108.2 % Control
same,(%) Control mean,0.01 μM + EC20 GABA,109.8 % Control
same,(%) Control n1,0.01 μM + EC20 GABA,108.8 % Control
same,(%) Control n2,0.01 μM + EC20 GABA,110.8 % Control
same,(%) Control mean,0.1 μM + EC20 GABA,113.7 % Control
same,(%) Control n1,0.1 μM + EC20 GABA,110.0 % Control
same,(%) Control n2,0.1 μM + EC20 GABA,117.4 % Control
same,(%) Control mean,1 μM + EC20 GABA,119.8 % Control
same,(%) Control n1,1 μM + EC20 GABA,124.5 % Control
same,(%) Control n2,1 μM + EC20 GABA,115.2 % Control
same,(%) Control mean,10 μM + EC20 GABA,73.0 % Control
same,(%) Control n1,10 μM + EC20 GABA,76.1 % Control
same,(%) Control n2,10 μM + EC20 GABA,69.9 % Control
same,(%) Control mean,100 μM + EC20 GABA,8.0 % Control
same,(%) Control n1,100 μM + EC20 GABA,7.6 % Control
same,(%) Control n2,100 μM + EC20 GABA,8.3 % Control
same,Mean Maximal Effect (% of Control),normalized to baseline peak current induced by EC20 GABA (1 μM) for 2 seconds,120 % of Control
same,Estimated EC50,positive modulation of EC20 GABA current,n/c*
